According to patent publication EP2295964A1, “Irrigation solution” (priority 2009, dated 2011):

Conditions: human, in vivo, iv
Description: The kinetics of the glucose infusion was studied to characterize how effectively the volunteers handled the glucose molecules as well as the accompanying water volume. […] 2003, 90, 600-607, in which the plasma concentration of glucose above baseline (C) at any time (t) resulting from the infusion rate ki is calculated by using the following differential equation: (dC)/(dt) = (ki -(CL×C(t)))/(Vd) [formula] in which Vd is the volume of distribution and CL is the glucose clearance.
The data were normally distributed and thus results were expressed as the mean and standard deviation (SD). Correlations were evaluated by linear regression analysis. P < 0.05 was considered statistically significant.

## D-glucose
  Vd, volume of distribution of exogenous glucose: 15.52 L
